Patent EP0908457B1, “3-(1,2-benzisothiazol- and isoxazol-5-Y1)-2,4(1H,3H)-pyrimidinedione or thione and 3-(1,2-benzisothiazol- and isoxazol-5-y1)-4(3H)-pyrimidinone or thione herbicidal agents” (BASF AKTIENGESELLSCHAFT, priority 1997, dated 1999)

Key:
Format in all cases: in vivo
[1] = test system: Cyperus iria; test: Preemergence weed control under flooded paddy conditions, CYPIR (Rice Flatsedge); conditions: preemergence, flooded paddy, rated three to four weeks after treatment; as to herbicidal effect rating, CYPIR: meaning of each grade not given here
[2] = test system: Cyperus serotinus, Rottb.; test: Preemergence weed control under flooded paddy conditions, CYPSE (Flatsedge); conditions: preemergence, rated three to four weeks after treatment; as to herbicidal effect rating, CYPSE: meaning of each grade not given here
[3] = test system: Monochoria vaginalis, Presl.; test: Preemergence weed control under flooded paddy conditions, MOOVA (Monochoria); conditions: preemergence, flooded paddy, rated three to four weeks after treatment; as to herbicidal effect rating, MOOVA: meaning of each grade not given here
[4] = test system: Echinochloa oryzoides (Ard.) Fritsch.; test: Preemergence weed control under flooded paddy conditions, ECHORC (Watergrass (Calif.)); conditions: preemergence, flooded paddy, rated three to four weeks after treatment; as to herbicidal effect rating, ECHORC: meaning of each grade not given here
[5] = test system: Sagittaria pygmaea, L.; test: Preemergence weed control under flooded paddy conditions, SAGPY (Arrowhead (Pygmaea)); conditions: preemergence, flooded paddy, rated three to four weeks after treatment; as to herbicidal effect rating, SAGPY: meaning of each grade not given here

Structure (SMILES)	herbicidal effect rating, CYPIR ([1]; Rate 0.0320 kg/ha)	herbicidal effect rating, CYPIR ([1]; Rate 0.0620 kg/ha)	herbicidal effect rating, CYPIR ([1]; Rate 0.1250 kg/ha)	herbicidal effect rating, CYPIR ([1]; Rate 0.2500 kg/ha)	herbicidal effect rating, CYPSE ([2]; Rate 0.0320 kg/ha)	herbicidal effect rating, CYPSE ([2]; Rate 0.0620 kg/ha)	herbicidal effect rating, CYPSE ([2]; Rate 0.1250 kg/ha)	herbicidal effect rating, CYPSE ([2]; Rate 0.2500 kg/ha)	herbicidal effect rating, MOOVA ([3]; Rate 0.0320 kg/ha)	herbicidal effect rating, MOOVA ([3]; Rate 0.0620 kg/ha)	herbicidal effect rating, MOOVA ([3]; Rate 0.1250 kg/ha)	herbicidal effect rating, MOOVA ([3]; Rate 0.2500 kg/ha)	herbicidal effect rating, ECHORC ([4]; Rate 0.0320 kg/ha)	herbicidal effect rating, ECHORC ([4]; Rate 0.0620 kg/ha)	herbicidal effect rating, ECHORC ([4]; Rate 0.1250 kg/ha)	herbicidal effect rating, ECHORC ([4]; Rate 0.2500 kg/ha)	herbicidal effect rating, SAGPY ([5]; Rate 0.0320 kg/ha)	herbicidal effect rating, SAGPY ([5]; Rate 0.0620 kg/ha)	herbicidal effect rating, SAGPY ([5]; Rate 0.1250 kg/ha)	herbicidal effect rating, SAGPY ([5]; Rate 0.2500 kg/ha)	also measured
CCCCS(=O)(=O)OCc1nsc2ccc(-n3c(=O)cc(C(F)(F)F)n(C)c3=O)cc12 [Example 381, 2,4(1H,3H)-Pyrimidinedione, 3-[3-(hydroxymethyl)-1,2-benzisothiazol-5-yl]-1-methyl-6-(trifluoromethyl)-, butanesulfonate (ester)]	6.0	7.0	8.0	8.0	0.0	4.0	7.0	7.0	6.0	7.0	8.0	8.0	0.0	3.0	4.0	6.0	3.0	5.0	6.0	7.0	–
Cn1c(C(F)(F)F)cc(=O)n(-c2ccc3snc(COC(=O)c4cccnc4Cl)c3c2)c1=O [Example 480, 2,4(1H,3H)-Pyrimidinedione, 3-[3-(hydroxymethyl)-1,2-benzisothiazol-5-yl]-1-methyl-6-(trifluoromethyl)-, 2-chloronicotinate (ester)]	–	–	–	–	–	–	–	–	–	–	–	–	–	–	–	–	–	–	–	–	CYPIR herbicidal rating ([1]; 0.0320 kg/ha): 6.0; CYPIR herbicidal rating ([1]; 0.0620 kg/ha): 9.0; CYPIR herbicidal rating ([1]; 0.1250 kg/ha): 9.0; CYPIR herbicidal rating ([1]; 0.2500 kg/ha): 9.0; CYPSE herbicidal rating ([2]; 0.0320 kg/ha): 3.0; CYPSE herbicidal rating ([2]; 0.1250 kg/ha): 3.0; MOOVA herbicidal rating ([3]; 0.0320 kg/ha): 7.0; MOOVA herbicidal rating ([3]; 0.0620 kg/ha): 9.0; MOOVA herbicidal rating ([3]; 0.1250 kg/ha): 9.0; MOOVA herbicidal rating ([3]; 0.2500 kg/ha): 9.0; ECHORC herbicidal rating ([4]; 0.0320 kg/ha): 0.0; ECHORC herbicidal rating ([4]; 0.0620 kg/ha): 2.0; ECHORC herbicidal rating ([4]; 0.1250 kg/ha): 5.0; ECHORC herbicidal rating ([4]; 0.2500 kg/ha): 6.0; SAGPY herbicidal rating ([5]; 0.0320 kg/ha): 0.0; SAGPY herbicidal rating ([5]; 0.0620 kg/ha): 3.0; SAGPY herbicidal rating ([5]; 0.1250 kg/ha): 5.0; SAGPY herbicidal rating ([5]; 0.2500 kg/ha): 6.0
Cn1c(C(F)(F)F)cc(=O)n(-c2ccc3snc(C(C#N)=Cc4ccccc4C#N)c3c2)c1=O [Example 606, 1,2-Benzisothiazole-3-acetonitrile, alpha-(o-cyanobenzylidene)-5-[3,6-dihydro-3-methyl-2,6-dioxo-4-(trifluoromethyl)-1(2H)-pyrimidinyl]-, (E)- and (Z)-]	4.0	6.0	6.0	9.0	0.0	2.0	2.0	2.0	6.0	7.0	7.0	9.0	5.0	5.0	5.0	6.0	0.0	–	3.0	4.0	–
CCS(=O)(=O)NC(=O)C(C)Oc1ccc(C)cc1-c1nsc2ccc(-n3c(=O)cc(C(F)(F)F)n(C)c3=O)cc12 (stereo not drawn) [Example 571, Propionamide, 2-{{2-{5-[3,6-dihydro-3-methyl-2,6-dioxo-4-(trifluoromethyl)-1(2H)-pyrimidinyl]-1,2-benzisothiazol-3-yl}-p-tolyl}oxy}-N-(ethylsulfonyl)]	0.0	3.0	3.0	9.0	0.0	0.0	0.0	0.0	0.0	6.0	7.0	9.0	0.0	2.0	3.0	6.0	0.0	0.0	0.0	0.0	–
Cn1c(C(F)(F)F)cc(=O)n(-c2ccc3snc(COC(=O)Cc4ccccc4Cl)c3c2)c1=O [Example 402, 2,4(1H,3H)-Pyrimidinedione, 3-[3-(hydroxymethyl)-1,2-benzisothiazol-5-yl]-1-methyl-6-(trifluoromethyl)-, (o-chlorophenyl)acetate (ester)]	0.0	2.0	3.0	7.0	–	0.0	0.0	5.0	7.0	7.0	9.0	9.0	0.0	0.0	3.0	4.0	0.0	0.0	0.0	3.0	–
